Laboratory results from patent publication US20210128457A1 (priority 2019, published 2021).
Like-named read-outs stand apart in the source and are kept apart here.

Legend:
cochlear hair cells = experiment: Gentamicin distribution in cochlear hair cells, RWS versus transcanal USM; settings: stood 3 minutes without ultrasound
Description: Because phalloidin binds to the cytoskeletal actin, it is used to mark the location of hair cells. […] Merge column is the overlay of the left two columns, it is more obvious to see the distribution of gentamicin in the cochlea. […] The green dots indicated the uptake of gentamicin in the hair cells.

[1] = assay type: in vitro ADME
Description: In order to understand the effect of ultrasound transcranial administration (behind the ear) to release the drug through the round window membrane (single-membrane), and the effect of ultrasound transcanal administration to release the drug through the eardrum and the round window membrane (two-membranes), 3D-printed material extrusion was used for designing three drug delivery devices:
M1: single-membrane group (FIGS. 5A to 5C), a dialysis membrane 80 was sandwiched between the donor end 10 (Donor area) and the receiving end 20 (Receptor area) for mimicking the position of the round window membrane.
M1-20°: single-membrane with tilt group, the round window membrane of the guinea pig's ear was not perpendicular to the ear canal, so the ultrasonic probe originally perpendicular to the donor end 10 was tilted at an angle of about 20 degrees (FIG. 5C) to make the experiment more realistic. That is, after the top of the ultrasonic probe was placed at the surface center of saline in the donor end 10, the angle between the long axis direction of the ultrasonic probe and the long axis direction of the device was about 20 degrees.
M1+B: The single-membrane transcranial group (FIG. 5D) differed from the single-membrane group in that the skull 90 was placed on top of the donor end 10; and
M2: two-membranes group (FIGS. 5E to 5F), the dialysis membranes 80 were respectively sandwiched between the donor end 10 and the interval chamber 30 of the device, and between the interval chamber 30 and the receiving end 20, where the donor end 10 simulated the external ear canal, the interval chamber 30 simulated the middle ear cavity, and the receiving end 20 simulated the inner ear.
The above groups simulated the actual guinea pig's ear structure and the volume in each area. The printing material was polyethylene terephthalate (PETG). A suitable molecular weight (Orange scientific, OrDial D-Clean, MW=1000) was chosen for the dialysis membrane 80 to separate the sample from the tested drug. About 400 μL of saline was injected into the receiving end 20 to simulate the actual inner ear lymph fluid volume of the guinea pig. […] The experiment samples were injected to the donor end 10 of the single-membrane group, the single-membrane transcranial group and the single-membrane with tilt group, and were injected to the interval chamber 30 of the two-membranes group, to mimic the volume of the middle ear cavity in the middle ear cavity of the guinea pigs. The single-membrane group and the two-membranes group were subjected to 3 W/cm^2 ultrasonic waves for 3 times (1 minute each time), while the single-membrane transcranial group blocked by the skull 90 was extended to 3 times (3 minutes each time) to ensure inducing the cavitation. […] In each group, saline in the receiving end 20 before the experiment, saline in the donor end 10 or the interval chamber 30 after the experiment, and saline in the receiving end 20 after the experiment were sampled for detecting fluorescence value.

[2] = assay type: in vivo, guinea pigs; settings: guinea pig
Description: Pigmented guinea pigs with normal sound reflection (Preyer's reflex) were used. The experimental group was divided into the following four groups:
The structure of the ear includes an outer ear 110, a middle ear 120, an inner ear 130, a tympanic membrane 140, and a round window membrane 150. The outer ear 110 includes an external ear canal 111, the middle ear 120 includes auditory ossicles 121 and a middle ear cavity 122, and the inner ear 130 includes a cochlea 131. The ultrasonic device 210 was placed in the external ear canal 111, and the ultrasound waves were generated by an ultrasonic device 210. The ultrasound waves were transmitted to the middle ear cavity 122 and induced the cavitation on the microbubbles 220 located in the middle ear cavity 122.
3 W/cm^2 ultrasound was administered three times (3 minutes each time) at the mark place, and the solution in the middle ear cavity was replaced every time.
After the animal experiment (n=4), the animals were sacrificed and the tympanic bullae were taken out. About 10 μL of perilymph fluid was collected and centrifuged. The supernatant was diluted at a ratio of 1:100 for detecting fluorescence value.
After the animal experiment had finished (n=4), the animals were sacrificed and the tympanic bullae were taken out. About 10 μL of perilymph fluid was collected and centrifuged. The supernatant was diluted at a ratio of 1:100 for detecting fluorescence value.

gentamicin uptake in hair cells (green fluorescence), second turn and third turn (cochlear hair cells) | ratio of permeability USM/RWS ([1]; M1+B single-membrane transcranial group) | relative fluorescence units of saline in the receiving end ([1]; M1+B single-membrane transcranial group, RWS) [RFU] | relative fluorescence units of saline in the receiving end ([1]; M1+B single-membrane transcranial group, USM, 3 W/cm^2, 3 times 3 minutes) [RFU] | ratio of permeability USM/RWS ([1]; M1-20° single-membrane with tilt group) | relative fluorescence units of saline in the receiving end ([1]; M1-20° single-membrane with tilt group, RWS) [RFU] | relative fluorescence units of saline in the receiving end ([1]; M1-20° single-membrane with tilt group, USM) [RFU] | ratio of permeability USM/RWS ([1]; M1 single-membrane group) | relative fluorescence units of saline in the receiving end ([1]; M1 single-membrane group, USM, 3 W/cm^2, 3 times 1 minute) [RFU] | relative fluorescence units of saline in the receiving end ([1]; M1 single-membrane group, round window soaking (RWS)) [RFU] | ratio of permeability USM/RWS ([1]; M2 two-membranes group) | relative fluorescence units of saline in the receiving end ([1]; M2 two-membranes group, RWS) [RFU] | relative fluorescence units of saline in the receiving end ([1]; M2 two-membranes group, USM, 3 W/cm^2, 3 times 1 minute) [RFU] | relative fluorescence units of perilymph fluid ([2]; RWS group A, stood 3 minutes without ultrasound) [RFU] | relative fluorescence units of perilymph fluid ([2]; RWS group B, stood 9 minutes without ultrasound) [RFU] | ratio of permeability transcanal USM/RWS group A [2] | ratio of permeability transcranial USM/RWS group B [2] | relative fluorescence units of perilymph fluid ([2]; transcanal group (USM), 3 W/cm^2, 3 times 1 minute) [RFU] | relative fluorescence units of perilymph fluid ([2]; transcranial group (USM), 3 W/cm^2, 3 times 3 minutes) [RFU] | Substance
did not found the dot-like fluorescence | – | – | – | – | – | – | – | – | – | – | – | – | – | – | – | – | – | – | Gentamicin
– | about 3.74 folds | 631.5±21.12 | 2362±64.91 | about 5.67 folds | 309.7±20.54 | 1756.3±76.29 | about 6.91 folds | 2726.3±79.97 | 394.5±5.3 | about 4.77 folds | 285.7±7.45 | 1363.7±56.66 | 1633.33±72.63 | 6700±69.74 | about 2.83 folds | about 1.5 folds | 4206.83±202.93 | 10113±338.8 | biotin-FITC
